According to EP0428107A2, “Use of quinolyl-and isoquinolyloxanole-2-ones for the production of a medicament for the treatment of multi-drug resistant tumors” (MERRELL DOW PHARMACEUTICALS INC., priority 1989, dated 1991):

System: CHO^R cells
Assay: Reversal of multidrug resistance: cell growth of vinblastine-resistant CHO^R cells, Coulter counter cell count
[1] = 72 h, read-out: % Inhibition of Cell Growth Compound Only

SMILES | inhibition at 0.1 µg/mL [1] | inhibition at 1 µg/mL [1] | inhibition at 5 µg/mL [1] | inhibition at 10 µg/mL [1] | % Inhibition of Cell Growth Compound + VLB (compound 0.1 µg/ml + vinblastine 0.2 µg/ml, 72 hr) | % Inhibition of Cell Growth Compound + VLB (compound 1 µg/ml + vinblastine 0.2 µg/ml, 72 hr) | % Inhibition of Cell Growth Compound + VLB (compound 5 µg/ml + vinblastine 0.2 µg/ml, 72 hr) | % Inhibition of Cell Growth Compound + VLB (compound 10 µg/ml + vinblastine 0.2 µg/ml, 72 hr) | effect on cell growth (VLB alone at 0.2 µg/ml, 72 hr)
CCCc1[nH]c(=O)oc1-c1ccnc2ccccc12 [4-Propyl-5-(4-Quinolinyl)-1-(3H)-Oxazolone] | 0% | 0% | 0% | 14% | 4% | 43% | 93% | 93% | 
CC[C@]1(O)C[C@@H]2CN(CCc3c([nH]c4ccccc34)[C@@](C(=O)OC)(c3cc4c(cc3OC)N(C)[C@H]3[C@@](O)(C(=O)OC)[C@H](OC(C)=O)[C@]5(CC)C=CCN6CC[C@]43[C@@H]65)C2)C1 [VLB, vinblastine, reference compound] |  |  |  |  |  |  |  |  | did not have any effect on cell growth
